In patent US20160263048A1, “BIOADHESIVE POLYMER-BASED CONTROLLED-RELEASE SYSTEMS, PRODUCTION PROCESS AND CLINICAL USES THEREOF” (priority 2010, published 2016):
Like-named read-outs stand apart in the source and are kept apart here.

Experiments:
Solubility in water = assay type: physicochemical; details: molar ratio TrA/HPβCD 1:10
Source text: Currently used cyclodextrins are preferably semi-synthetic derivatives of β-cyclodextrin, soluble in highly polar organic solvents, marketed by Roquette or Wacker such as hydroxypropyl-βCD (HPβCD) and Methyl-βCD. The HPβCD marketed by Roquette under the name Kleptose® HP is an amorphous white powder, with a solubility in water higher than 1 g/ml. Further to this, it has a good stability both in acidic and in basic milieu and can be used to administrate drugs both by injection and by the oral route. The second one, under the name Kleptose® Crysmeb® exp, is a mixture of cyclodextrins which contain from one to seven methyl groups. Crysmeb® has an average of 4 methyl groups for one cyclodextrin molecule and has an average molecular weight of 1191 dalton. It is a white powder, easily soluble in water and its solubility grows with the temperature, and, in addition, it is very stable both in and acidic and in basic milieus.
Such a capability was tested for the buccal release of triamcinolone acetonide (TrA), a corticosteroid drug poorly soluble in water. According to the European Pharmacopeia, TrA is a drug that is practically not soluble in water, since its solubility in this vehicle is about 0.02 mg/ml. The presence of HPβCD in the film enhances TrA solubility by 600 fold, i.e., to about […] (molar ratio TrA/HPβCD 1:10). […]

[1] = cited from earlier work

In the case of `CC1(C)O[C@@H]2C[C@H]3[C@@H]4CCC5=CC(=O)C=C[C@]5(C)[C@@]4(F)[C@@H](O)C[C@]3(C)[C@]2(C(=O)CO)O1` [TrA, triamcinolone acetonide], the “enhancement of TrA solubility by presence of HPβCD” value (Solubility in water) is listed as 600 fold, the “TrA solubility in presence of HPβCD” value (Solubility in water; no further enhancement at higher HPβCD concentration) is listed as “about 4 % w/v” and the solubility in water ([1]; according to the European Pharmacopeia) is listed as “about 0.02 mg/ml”.
In the case of hydroxypropyl-βCD [HPβCD], the solubility in water ([1]; Kleptose® HP marketed by Roquette) is listed as “higher than 1 g/ml”.
